Data on 4 molecules can be found in ChEMBL document CHEMBL5528031, “Synthesis and antitumor activity of cyclopentane-fused anthraquinone derivatives” (Eur J Med Chem, 2024).

In brackets after ≈: the same amount, converted by molar mass. Activity calls are given as the source filed them. The rule behind the calls is not given here. Where only a bound is given, the exact number is not on record here.

Test system in the first data set: not listed separately
Put plainly: Antiproliferative activity against human DND41 cells assessed as inhibition of cell growth incubated for 72 hrs by MTT assay. It is filed as functional, cell-based. The note with it: DND41, 72 h. (In general: Tetrazolium assays rely on reduction of a dye to a coloured formazan, in cell work by metabolically active cells.)
What is called IC50 is the point on the concentration scale where inhibition reaches its midpoint. Consider `NC1CCCN(C(=O)C2Cc3c(O)c4c(c(O)c3C2)C(=O)c2ccccc2C4=O)C1` (configuration not stated), for which the IC50 turned out to be 1.5 µM.

For the molecule `O=C1c2ccccc2C(=O)c2c(O)c3c(c(O)c21)CC(C(=O)N1CCNCC1)C3`, the half-inhibitory concentration (IC50) was 1.7 µM.

Take `O=C1c2ccccc2C(=O)c2c(O)c3c(c(O)c21)CC(C(=O)N1CCC(N2CCCCC2)CC1)C3`: the IC50 came out at 1.7 µM.

Regarding `O=C1c2ccccc2C(=O)c2c(O)c3c(c(O)c21)CC(C(=O)NCCOCCO)C3`, the IC50 was more than 50 µM.

Test system in a further data set: not listed separately
Put plainly: Drug uptake in human HCT-116 cells assessed as increase in intracellular accumulation at 2 uM measured after 24 hrs by Hoechst 33342 staining based fluorescence confocal microscopic analysis. It is filed as ADME, cell-based. The note with it: hct-116, 24 h.
Turning to `O=C1c2ccccc2C(=O)c2c(O)c3c(c(O)c21)CC(C(=O)NCCOCCO)C3`, the Drug uptake result was “Not Active”.

Test system in another data set: not listed separately
Put plainly: Drug uptake in human HCT-116 cells assessed as increase in intracellular accumulation at 2 uM measured after 24 hrs by flow cytometry analysis. Type of data set: ADME, cell-based. The note with it: hct-116, 24 h. (In flow cytometry, cells or beads pass a laser one at a time.)
With `O=C1c2ccccc2C(=O)c2c(O)c3c(c(O)c21)CC(C(=O)NCCOCCO)C3`, the Drug uptake entry was “Not Active”.

For another data set, the system named is LN-229. Put plainly: Antiproliferative activity against human LN-229 cells assessed as inhibition of cell growth incubated for 72 hrs by MTT assay. Type of data set: functional, cell-based. The note with it: LN-229, 72 h.
As for `NC1CCCN(C(=O)C2Cc3c(O)c4c(c(O)c3C2)C(=O)c2ccccc2C4=O)C1` (configuration not stated), the concentration for half-maximal inhibition (IC50) was 3.5 µM.

On to `O=C1c2ccccc2C(=O)c2c(O)c3c(c(O)c21)CC(C(=O)N1CCNCC1)C3`, for which the IC50 was 5 µM.

Regarding `O=C1c2ccccc2C(=O)c2c(O)c3c(c(O)c21)CC(C(=O)N1CCC(N2CCCCC2)CC1)C3`, the IC50 came out at 2.8 µM.

For the molecule `O=C1c2ccccc2C(=O)c2c(O)c3c(c(O)c21)CC(C(=O)NCCOCCO)C3`, the 50% inhibitory concentration (IC50) is more than 50 µM.

The next data set has as its system HCT-116. Put plainly: Antiproliferative activity against human HCT-116 cells assessed as inhibition of cell growth incubated for 72 hrs by MTT assay. It is filed as functional, cell-based. The note with it: HCT-116, 72 h.
With `NC1CCCN(C(=O)C2Cc3c(O)c4c(c(O)c3C2)C(=O)c2ccccc2C4=O)C1` (configuration not stated), the half-inhibitory concentration (IC50) was 3.2 µM.

As for `O=C1c2ccccc2C(=O)c2c(O)c3c(c(O)c21)CC(C(=O)N1CCNCC1)C3`, the concentration for half-maximal inhibition (IC50) was found to be 1.3 µM.

As for `O=C1c2ccccc2C(=O)c2c(O)c3c(c(O)c21)CC(C(=O)N1CCC(N2CCCCC2)CC1)C3`, the 50% inhibitory concentration (IC50) is 3.1 µM.

Consider `O=C1c2ccccc2C(=O)c2c(O)c3c(c(O)c21)CC(C(=O)NCCOCCO)C3`, for which the IC50 is more than 50 µM.

A further data set relates to NCI-H1975. Put plainly: Antiproliferative activity against human NCI-H1975 cells assessed as inhibition of cell growth incubated for 72 hrs by MTT assay. Type of data set: functional, cell-based. The note with it: NCI-H1975, 72 h.
In the case of `NC1CCCN(C(=O)C2Cc3c(O)c4c(c(O)c3C2)C(=O)c2ccccc2C4=O)C1` (configuration not stated), the IC50 was 4.6 µM.

For `O=C1c2ccccc2C(=O)c2c(O)c3c(c(O)c21)CC(C(=O)N1CCNCC1)C3`, the 50% inhibitory concentration (IC50) is 8.8 µM.

Turning to `O=C1c2ccccc2C(=O)c2c(O)c3c(c(O)c21)CC(C(=O)N1CCC(N2CCCCC2)CC1)C3`, the 50% inhibitory concentration (IC50) is 3.1 µM.

Consider `O=C1c2ccccc2C(=O)c2c(O)c3c(c(O)c21)CC(C(=O)NCCOCCO)C3`, for which the 50% inhibitory concentration (IC50) was more than 50 µM.

The next data set deals with CAPAN-1. Put plainly: Antiproliferative activity against human CAPAN-1 cells assessed as inhibition of cell growth incubated for 72 hrs by MTT assay. Type of data set: functional, cell-based. The note with it: CAPAN-1, 72 h.
On to `NC1CCCN(C(=O)C2Cc3c(O)c4c(c(O)c3C2)C(=O)c2ccccc2C4=O)C1` (configuration not stated), for which the concentration for half-maximal inhibition (IC50) came out at 1 µM.

For `O=C1c2ccccc2C(=O)c2c(O)c3c(c(O)c21)CC(C(=O)N1CCNCC1)C3`, the IC50 was 1.4 µM.

For `O=C1c2ccccc2C(=O)c2c(O)c3c(c(O)c21)CC(C(=O)N1CCC(N2CCCCC2)CC1)C3`, the 50% inhibitory concentration (IC50) was 1.5 µM.

In the case of `O=C1c2ccccc2C(=O)c2c(O)c3c(c(O)c21)CC(C(=O)NCCOCCO)C3`, the IC50 was more than 50 µM.

The test system of another data set is DNA. Put plainly: Binding affinity to pBR322 plasmid DNA (unknown origin) assessed as DNA intercalation by measuring reduction in electrophoretic shift at 5 to 20 uM incubated for 30 mins by EtBr staining based agarose gel electrophoresis. The note with it: dose 5-20 µM. It is filed as nucleic-acid assay.
Turning to `O=C1c2ccccc2C(=O)c2c(O)c3c(c(O)c21)CC(C(=O)NCCOCCO)C3`, the outcome was inactive.

Test system in another data set: not listed separately
Put plainly: Cytotoxicity against hFB-hTERT6 cells assessed as inhibition of cell growth incubated for 72 hrs by MTT assay. Type of data set: toxicity, cell-based. The note with it: human.
With `NC1CCCN(C(=O)C2Cc3c(O)c4c(c(O)c3C2)C(=O)c2ccccc2C4=O)C1` (configuration not stated), the IC50 at 72 h was determined as 4 µM.

As for `O=C1c2ccccc2C(=O)c2c(O)c3c(c(O)c21)CC(C(=O)N1CCNCC1)C3`, the IC50 at 72 h amounted to 4 µM.

Turning to `O=C1c2ccccc2C(=O)c2c(O)c3c(c(O)c21)CC(C(=O)N1CCC(N2CCCCC2)CC1)C3`, the 50% inhibitory concentration (IC50) at 72 h worked out at 4.5 µM.

With `O=C1c2ccccc2C(=O)c2c(O)c3c(c(O)c21)CC(C(=O)NCCOCCO)C3`, the half-inhibitory concentration (IC50) at 72 h is more than 50 µM.

In another data set the test system is Calf thymus DNA. Put plainly: Binding affinity to calf thymus DNA assessed as binding constant at 10 uM by fluorescence spectroscopy analysis. It is filed as nucleic-acid assay. The note with it: Bos taurus.
Turning to `O=C1c2ccccc2C(=O)c2c(O)c3c(c(O)c21)CC(C(=O)NCCOCCO)C3`, the Kb was 0.011 10^6/M.

The test system of another data set is Z-138. Put plainly: Antiproliferative activity against human Z138 cells assessed as inhibition of cell growth incubated for 72 hrs by MTT assay. Type of data set: functional, cell-based. The note with it: Z-138, 72 h.
As to `NC1CCCN(C(=O)C2Cc3c(O)c4c(c(O)c3C2)C(=O)c2ccccc2C4=O)C1` (configuration not stated), the IC50 came to 2.2 µM.

For the molecule `O=C1c2ccccc2C(=O)c2c(O)c3c(c(O)c21)CC(C(=O)N1CCNCC1)C3`, the 50% inhibitory concentration (IC50) came to 2.1 µM.

For `O=C1c2ccccc2C(=O)c2c(O)c3c(c(O)c21)CC(C(=O)N1CCC(N2CCCCC2)CC1)C3`, the half-maximal inhibitory concentration (IC50) was found to be 2.5 µM.

Take `O=C1c2ccccc2C(=O)c2c(O)c3c(c(O)c21)CC(C(=O)NCCOCCO)C3`: the IC50 is more than 50 µM.

A further data set has as its system HL-60. Put plainly: Antiproliferative activity against human HL-60 cells assessed as inhibition of cell growth incubated for 72 hrs by MTT assay. It is filed as functional, cell-based. The note with it: HL-60, 72 h.
Take `NC1CCCN(C(=O)C2Cc3c(O)c4c(c(O)c3C2)C(=O)c2ccccc2C4=O)C1` (configuration not stated): the IC50 came out at 1.9 µM.

Turning to `O=C1c2ccccc2C(=O)c2c(O)c3c(c(O)c21)CC(C(=O)N1CCNCC1)C3`, the half-inhibitory concentration (IC50) came to 1.2 µM.

On to `O=C1c2ccccc2C(=O)c2c(O)c3c(c(O)c21)CC(C(=O)N1CCC(N2CCCCC2)CC1)C3`, for which the IC50 came out at 2.4 µM.

For the molecule `O=C1c2ccccc2C(=O)c2c(O)c3c(c(O)c21)CC(C(=O)NCCOCCO)C3`, the IC50 was more than 50 µM.

Test system in a further data set: not listed separately
Put plainly: Antiproliferative activity against multidrug resistant human K562/4 cells expressing P-gp assessed as inhibition of cell growth incubated for 72 hrs by MTT assay. It is filed as functional, cell-based. The note with it: K562/4, 72 h.
For `NC1CCCN(C(=O)C2Cc3c(O)c4c(c(O)c3C2)C(=O)c2ccccc2C4=O)C1` (configuration not stated), the IC50 is 1.2 µM.

On to `O=C1c2ccccc2C(=O)c2c(O)c3c(c(O)c21)CC(C(=O)N1CCNCC1)C3`, for which the 50% inhibitory concentration (IC50) amounted to 2.2 µM.

For the molecule `O=C1c2ccccc2C(=O)c2c(O)c3c(c(O)c21)CC(C(=O)N1CCC(N2CCCCC2)CC1)C3`, the 50% inhibitory concentration (IC50) worked out at 4.6 µM.

Turning to `O=C1c2ccccc2C(=O)c2c(O)c3c(c(O)c21)CC(C(=O)NCCOCCO)C3`, the 50% inhibitory concentration (IC50) is more than 50 µM.

The test system of a further data set is K562. Put plainly: Antiproliferative activity against human K562 cells assessed as inhibition of cell growth incubated for 72 hrs by MTT assay. It is filed as functional, cell-based. The note with it: K562, 72 h.
With `NC1CCCN(C(=O)C2Cc3c(O)c4c(c(O)c3C2)C(=O)c2ccccc2C4=O)C1` (configuration not stated), the IC50 is 1.7 µM.

As to `O=C1c2ccccc2C(=O)c2c(O)c3c(c(O)c21)CC(C(=O)N1CCNCC1)C3`, the IC50 worked out at 1.3 µM.

Consider `O=C1c2ccccc2C(=O)c2c(O)c3c(c(O)c21)CC(C(=O)N1CCC(N2CCCCC2)CC1)C3`, for which the IC50 worked out at 2 µM.

As for `O=C1c2ccccc2C(=O)c2c(O)c3c(c(O)c21)CC(C(=O)NCCOCCO)C3`, the IC50 was more than 50 µM.

Test system in a further data set: not listed separately
Put plainly: Solubility of compound in deionized water at pH 6.
Conditions: not given
It is filed as physicochemical.
Usually solubility stands for the dissolved amount per volume that the medium holds. Low values mean little dissolved substance, high ones much dissolved substance. Molecule `O=C1c2ccccc2C(=O)c2c(O)c3c(c(O)c21)CC(C(=O)N1CCNCC1)C3` gave a solubility of 46 mg/mL (≈ 117 mM).

Another data set has as its system Calf thymus DNA. Put plainly: Binding affinity to calf thymus DNA assessed as dissociation constant at 10 uM by fluorescence spectroscopy analysis. It is filed as nucleic-acid assay, Bos taurus.
Conditions: not given
One may read the Kd as the constant that tells how readily two partners part at equilibrium. `O=C1c2ccccc2C(=O)c2c(O)c3c(c(O)c21)CC(C(=O)NCCOCCO)C3`: the Kd came to 90 µM.

Test system in the next data set: not listed separately
Put plainly: Drug uptake in hFB-hTERT6 cells. It is filed as ADME, cell-based. The note with it: human.
As to `O=C1c2ccccc2C(=O)c2c(O)c3c(c(O)c21)CC(C(=O)NCCOCCO)C3`, the Drug uptake result is “Not Active”.
